Assay results published in patent US9084782B2, “Chemical inhibitors of cholesterol biosynthesis and venous angiogenesis” (The Regents of the University of California, priority 2011, dated 2015).

Tests used:
[1] = system: Tg(kdrl:GFP) zebrafish embryos; assay: Caudal vein plexus (CVP) formation / venous angiogenesis in Tg(kdrl:GFP) zebrafish embryos; format: in vivo; details: for anti-angiogenetic activity of aplexone analogs (inhibition of CVP formation / venous angiogenesis): SAR study, compared with aplexone; for ranking in the angiogenesis test: compounds of FIG. 11
From the text: Images of GFP expression in Tg(kdrl:GFP) embryos were acquired using a Zeiss SV-11 epifluorescence microscope. Confocal images were acquired using a Carl Zeiss Laser Scanning Systems LSM510 equipped with 20× air, 20× water or 40× water immersion objectives. For single time point confocal images, embryos were anesthetized with 0.01% tricaine and embedded in 1% agarose. When capturing time-lapse confocal movies, embryos were mounted in 3.5% methylcellulose (Sigma-Aldrich) and imaged for 5 hrs on a heated stage at 28.5° C. The images obtained were analyzed using the Zeiss LSM Image Brower version 4 and Image J.
A synthetic chemical library containing 168 compounds (Castellano et al., 2007) and 300 chemicals from Biomol International LP, consisting of 72 ion channel inhibitors (Cat No. 2805), 84 kinase/phosphatase inhibitors (Cat No. 2831), 84 orphan ligands (Cat No. 2825), and 60 endocannabinoids (Cat No. 2801) were screened. The synthetic small molecules were prepared through nucleophilic phosphine catalysis of allenoates (Zhu et al., 2003). Four Tg(kdrl:GFP) embryos were placed into each well of 96-well plates containing a 10 μM solution of each chemical compound dissolved in embryo buffer with 0.1% DMSO. The embryos were raised at 28.5° C. and examined for defects in blood vessel development at 1 and 2 days after treatment. Standard parameters such as numbers of somites and head to body angle were used to determine the stages of zebrafish embryos (Kimmel et al., 1995).
Aplexone treatment described in this study was carried out at a concentration of 10 μM starting at 10 hpf unless otherwise specified.
8 ng tnnt2 MO (Gene Tools) (Sehnert et al., 2002), 3 nl of 4 mM GGTI-2133 (Calbiochem), 3 nl of 5 mM L744,832 (Calbiochem) and 1 nl of 2M mevalonate (Sigma-Aldrich) were injected into 1-2 cell stage embryos.
The library of 168 compounds^24 prepared through the nucleophilic phosphine catalysis of allenes were screened using Tg(kdrl:GFP) zebrafish. Four embryos were placed in each well of 96-well plates containing a 10 uM solution of each chemical compound dissolved in embryo buffer with 0.1% DMSO. The embryos were raised at 28.5° C. and defects in blood vessel development were examined at 1 and 2 days after fertilization.

[2] = system: HMGCR pathway; assay: Cholesterol assay in embryo lysate (Amplex Red); format: in vivo, zebrafish; details: relative to 0.4% DMSO control
Method: The yolk was removed from embryos by vortexing in calcium-free Ringer's solution with 1 mM EDTA at 4° C. The embryos were then pelleted and washed with fresh calcium free Ringer's solution 5 times before being resuspended in cholesterol assay reaction buffer and were then lysed by sonication using a Sonifier 450 (Branson). Cholesterol levels in the embryo lysate were measured with an Amplex Red Cholesterol Assay Kit (Invitrogen) and Flex station II (Bucher Biotec). The total protein concentration of the embryo lysate was measured using a DC protein assay (Bio-Rad Laboratories) and SpectraMax plus (Molecular Devices).

Row | SMILES | anti-angiogenetic activity of aplexone analogs (inhibition of CVP formation / venous angiogenesis) [1] | further results
1 | Cc1ccc(S(=O)(=O)N2CC(C(C)O)=CC[C@@H]2c2ccccc2)cc1 (stereo partly shown) [Compound 6] | did not inhibit the CVP formation | 
2 | C=CCCC(=O)C1=CCC(c2ccccc2)N(S(=O)(=O)c2ccc(C)cc2)C1 (stereo not shown) [Compound 8] | showed the bioactivity of aplexone albeit to a lesser extent | 
3 | CC(=O)C1=CCC(c2ccccc2)NC1 (stereo not shown) [Compound 11] | failed to inhibit the formation of CVP | 
4 | CC(=O)C1=CCC(c2ccccc2)N(Cc2ccccc2)C1 (stereo not shown) [Compound 12] | failed to inhibit the formation of CVP | 
5 | CC(=O)C1=CCC(c2ccccc2)N(S(C)(=O)=O)C1 (stereo not shown) [Compound 13] | failed to inhibit the formation of CVP | embryonic cholesterol levels [2]: normal cholesterol levels; anti-angiogenetic activity of aplexone analogs (inhibition of CVP formation / venous angiogenesis) ([1]; listed as AP13): normal venous angiogenesis
6 | CC(=O)C1=CCCN(S(=O)(=O)c2ccc(C)cc2)C1 [Compound 16] | developed a single-lumen caudal vein like aplexone, albeit in lower efficiency | 
7 | CC(=O)C1=CCC(c2ccccc2)N(S(=O)(=O)c2ccccc2)C1 (stereo not shown) [Compound 17] | showed inhibitory activity for venous angiogenesis | 
8 | CC(=O)C1=CCC(c2ccccc2)N(S(=O)(=O)c2ccccc2C)C1 (stereo not shown) [Compound 18] | without showing much decrease in the activity | 
9 | CC(=O)C1=CCC(c2ccccc2)N(S(=O)(=O)c2cccc(C)c2)C1 (stereo not shown) [Compound 19] | without showing much decrease in the activity | 
10 | CC(=O)C1=CCC(c2ccccc2)N(S(=O)(=O)c2ccc(Cl)cc2)C1 (stereo not shown) [Compound 20] | showed inhibitory activity for venous angiogenesis | 
11 | CC(=O)C1=CCC(c2ccc(F)cc2)N(S(=O)(=O)c2ccc(C)cc2)C1 (stereo not shown) [Compound 24] | abolished the biological activity | 
12 | CC(=O)C1=CCC(c2ccc(Cl)cc2)N(S(=O)(=O)c2ccc(C)cc2)C1 (stereo not shown) [Compound 25] | diminished the antiangiogenic activity | 
13 | CC(=O)C1=CCC(c2ccc(C)cc2)N(S(=O)(=O)c2ccc(C)cc2)C1 (stereo not shown) [Compound 26] | active | ranking in the angiogenesis test [1]: most active
14 | CC(=O)C1=CCC(c2ccc(Cl)c(Cl)c2)N(S(=O)(=O)c2ccc(C)cc2)C1 (stereo not shown) [Compound 31] | not active | 
15 | CC(=O)C1=CCC(c2ccc3c(c2)OCO3)N(S(=O)(=O)c2ccc(C)cc2)C1 (stereo not shown) [Compound 32] | not active | 
16 | CC(=O)C1=CCC(c2cccs2)N(S(=O)(=O)c2ccc(C)cc2)C1 (stereo not shown) [Compound 33] | active | ranking in the angiogenesis test [1]: most active
17 | CC(=O)C1=CCC(c2ccco2)N(S(=O)(=O)c2ccc(C)cc2)C1 (stereo not shown) [Compound 34] | inactive | 
18 | CC(=O)C1=CCC(c2ccc(C)o2)N(S(=O)(=O)c2ccc(C)cc2)C1 (stereo not shown) [Compound 35] | inactive | 
19 | CC(=O)C1=CCC(c2cccn2C)N(S(=O)(=O)c2ccc(C)cc2)C1 (stereo not shown) [Compound 36] | inactive | 
20 | CC(=O)C1=CCC(c2cccc3ccccc23)N(S(=O)(=O)c2ccc(C)cc2)C1 (stereo not shown) [Compound 37] | inactive | 
21 | CC(C)C[C@H](NC(=O)c1ccc(NCc2cnc[nH]2)cc1-c1cccc2ccccc12)C(=O)O [GGTI-2133, reference compound] |  | CVP formation ([1]; 3 nl of 4 mM GGTI-2133 injected at 1-2 cell stage, 48 hpf): CVP phenotypes reminiscent of aplexone treatment
22 | CC[C@H](C)[C@@H](CO[C@@H](Cc1ccccc1)C(=O)N[C@@H](CCS(C)(=O)=O)C(=O)OC(C)C)NC[C@@H](N)CS [L744,832, reference compound] |  | CVP formation ([1]; 3 nl of 5 mM L744,832 injected at 1-2 cell stage, 48 hpf): does not affect the formation of the CVP
23 | c1ccc2c(-c3ccncc3)c[nH]c2c1 [Rockout, reference compound] |  | CVP formation ([1]; 50 μM Rockout, 48 hpf): recapitulated the caudal vein phenotype of aplexone treatment
24 | CC(C)c1c(C(=O)Nc2ccccc2)c(-c2ccccc2)c(-c2ccc(F)cc2)n1CC[C@@H](O)C[C@@H](O)CC(=O)O [atorvastatin, reference compound] |  | embryonic cholesterol levels [2]: reduce cholesterol level significantly; CVP formation at suboptimal level ([1]; 2 μM single agent): normal CVP; CVP formation ([1]; atorvastatin-treated embryos, from 10 hpf, imaged at 48 hpf): phenotypes similar to those observed in embryos exposed to aplexone
25 | CC(O)(CCO)CC(=O)O (stereo not shown) [mevalonate, reference compound] |  | effect on aplexone's inhibition of CVP formation ([1]; 1 nl of 2M mevalonate injected, 5 μM aplexone from 2 hpf): blocks the inhibitory effects of aplexone
